Experimental data as given in the NIST ThermoML archive (doi:10.1016/j.fluid.2018.04.012).

Assay: xn = mol fraction of the nth substance listed
Conditions: Liquid, Vibrating tube method

CC(C)OC(C)C [diisopropyl ether] + CC(C)O
mass density [kg/m3]
Conditions	x2 = 0.1503	x2 = 0.2979	x2 = 0.4228	x2 = 0.5	x2 = 0.6737	x2 = 0.8483
333.15 K, 130000 kPa	–	–	–	807.2	815.2	824.7
333.15 K, 140000 kPa	799.3	804.1	808.6	811.9	819.7	829.1
353.19 K, 1000 kPa	665.8	673.2	680.7	685.4	698.3	713.7
353.19 K, 5000 kPa	673.7	680.7	687.7	692.4	704.7	719.5
353.19 K, 10000 kPa	682.3	689.1	695.5	700.2	711.9	726.1
353.19 K, 15000 kPa	690	696.5	702.7	707.2	718.5	732.2
353.19 K, 20000 kPa	696.9	703.2	709.2	713.6	724.5	737.7
353.19 K, 25000 kPa	703.3	709.3	715.3	719.5	730.1	742.9
353.19 K, 30000 kPa	709.2	715.1	720.9	725	735.3	747.8
353.19 K, 35000 kPa	714.7	720.5	726.2	730.1	740.2	752.4
353.19 K, 40000 kPa	719.8	725.4	731.2	734.9	744.8	756.7
353.19 K, 45000 kPa	724.6	730.2	735.9	739.5	749.2	760.8
353.19 K, 50000 kPa	729.4	734.8	740.3	743.9	753.5	764.9
353.19 K, 55000 kPa	733.7	739	744.5	748	757.3	768.6
353.19 K, 60000 kPa	737.8	743.1	748.6	752	761.1	772.2
353.19 K, 65000 kPa	741.9	747.1	752.5	755.8	764.9	775.8
353.19 K, 70000 kPa	745.7	750.9	756.2	759.5	768.4	779.2
353.19 K, 80000 kPa	752.9	758	763.2	766.3	775	785.5
353.19 K, 90000 kPa	759.7	764.7	769.7	772.8	781.4	791.6
353.19 K, 100000 kPa	766	770.8	775.8	778.9	787.2	797.2
353.19 K, 110000 kPa	772	776.8	781.5	784.7	792.9	802.7
353.19 K, 120000 kPa	777.6	782.3	786.9	790.1	798.1	807.7
353.19 K, 130000 kPa	782.9	787.6	792.1	795.2	803.1	812.6
353.19 K, 140000 kPa	788.1	792.7	797	800.2	808	817.4
373.24 K, 1000 kPa	641	648.3	655.6	660.4	673.6	689.6
373.24 K, 5000 kPa	650.7	657.5	664.2	669	681.4	696.7
373.24 K, 10000 kPa	661	667.6	673.7	678.3	690.1	704.5
373.24 K, 15000 kPa	670	676.2	682.1	686.6	697.9	711.6
373.24 K, 20000 kPa	678.1	684.1	689.7	694	704.8	718
373.24 K, 25000 kPa	685.3	691.1	696.6	700.8	711.2	724
373.24 K, 30000 kPa	692	697.6	703	707	717.1	729.5
373.24 K, 35000 kPa	698.1	703.6	708.9	712.8	722.6	734.7
373.24 K, 40000 kPa	703.9	709.2	714.5	718.1	727.8	739.6
373.24 K, 45000 kPa	709.2	714.5	719.6	723.3	732.7	744.3
373.24 K, 50000 kPa	714.2	719.3	724.5	728	737.2	748.6
373.24 K, 55000 kPa	719.1	724.1	729.2	732.6	741.7	752.7
373.24 K, 60000 kPa	723.5	728.5	733.6	736.9	745.8	756.7
373.24 K, 65000 kPa	727.8	732.8	737.8	741.1	749.8	760.5
373.24 K, 70000 kPa	732	736.8	741.8	745	753.6	764.2
373.24 K, 80000 kPa	739.7	744.5	749.3	752.6	760.9	771.2
373.24 K, 90000 kPa	747	751.7	756.3	759.4	767.7	777.7
373.24 K, 100000 kPa	753.7	758.3	762.8	765.9	774	783.8
373.24 K, 110000 kPa	760	764.5	768.9	772	779.9	789.5
373.24 K, 120000 kPa	765.9	770.4	774.7	777.8	785.5	795
373.24 K, 130000 kPa	771.6	776	780.2	783.3	790.9	800.2
373.24 K, 140000 kPa	776.9	781.3	785.3	788.5	796	805.1
393.28 K, 1000 kPa	614.1	620.6	627.9	632.9	645.9	662.5
393.28 K, 5000 kPa	626.4	632.4	638.9	643.7	655.9	671.3
393.28 K, 10000 kPa	639	644.7	650.5	655.2	666.5	680.9
393.28 K, 15000 kPa	649.7	655.1	660.6	665.1	675.7	689.4
393.28 K, 20000 kPa	658.9	664.1	669.5	673.7	683.9	696.9
393.28 K, 25000 kPa	667.1	672.2	677.4	681.4	691.2	703.8
393.28 K, 30000 kPa	674.7	679.5	684.6	688.5	698	710.1
393.28 K, 35000 kPa	681.5	686.3	691.3	695.1	704.2	716
393.28 K, 40000 kPa	687.8	692.5	697.4	701	710.1	721.5
393.28 K, 45000 kPa	693.6	698.2	703.2	706.6	715.4	726.6
393.28 K, 50000 kPa	699.1	703.7	708.6	711.8	720.5	731.5
393.28 K, 55000 kPa	704.5	708.9	713.6	716.9	725.4	736.2
393.28 K, 60000 kPa	709.2	713.7	718.4	721.6	729.9	740.5
393.28 K, 65000 kPa	713.9	718.3	723	726	734.3	744.7
393.28 K, 70000 kPa	718.4	722.8	727.3	730.4	738.5	748.8
393.28 K, 80000 kPa	726.7	731	735.5	738.5	746.4	756.3
393.28 K, 90000 kPa	734.4	738.6	742.9	746.1	753.7	763.4
393.28 K, 100000 kPa	741.5	745.6	749.9	752.9	760.4	769.9
393.28 K, 110000 kPa	748.3	752.4	756.4	759.5	766.8	776.1
393.28 K, 120000 kPa	754.5	758.5	762.5	765.5	772.8	781.8
393.28 K, 130000 kPa	760.4	764.4	768.3	771.3	778.4	787.4
393.28 K, 140000 kPa	766.1	770	773.8	776.8	783.9	792.7
